{
  "source": "patent US20230263751A1",
  "about": "“Compositions and Methods of Use of beta-hydroxy-beta-methylbutyrate (HMB) and Chemotherapy Agents” (Metabolic Technologies, LLC, priority 2020, published 2023)",
  "key": {"EAC cells [1]": {"system": "EAC cells", "experiment": "Survival assessment of mice with EAC (Kaplan and Meier)", "format": "in vivo, Balb/c mice (Mus musculus)", "details": "for Mean survival time: mice with EAC, n=12, observation discontinued after 30 days, Control 16 days", "from_the_text": "(§1) In addition, after euthanasia, all ascitic fluid was collected to measure volume and weight. Finally, Balb/c mice (n=12) were chosen at random and kept alive to assess the effects of HMB, Doxo and Doxo+HMB on survival time according to Kaplan and Meier (1958); survival assessments were discontinued after 30 days."}, "p53": {"system": "p53", "experiment": "Western blotting of p53 in EAC cells", "format": "in vivo, Balb/c mice (Mus musculus)", "details": "p53/actin", "method": "(§2) Apoptotic markers were evaluated by Western blotting. EAC cells were washed with PBS and lysed in RIPA buffer supplemented with 1% protease and 3% phosphatase inhibitors. The proteins were further denatured in Laemmli buffer and equivalent amounts were subjected to SDS-PAGE electrophoresis, followed by electroblotting on PVDF membranes. The membranes were blocked and then incubated with the primary monoclonal antibodies: p53 (Santa Cruz Biotechnology, DO-1; sc-126), Bax (Santa Cruz Biotechnology, B-9; sc-7480) and BcL-xl (Santa Cruz Biotechnology, H-5; sc-8392), and subsequently incubated with peroxidase conjugated secondary antibodies (Dako and Chemicon). Immunodetection was performed using a chemiluminescence determination kit, and β-actin was used as a loading control. Images were obtained with the ChemiDoc MP (Bio Rad) system."}, "IL-6": {"system": "IL-6", "experiment": "IL-6 in gastrocnemius muscle by ELISA", "format": "in vivo, Balb/c mice (Mus musculus)", "details": "in relation to the Control group", "method": "(§3) For the determination of cytokines, the gastrocnemius muscle was homogenized in a RIPA buffer supplemented with 1% protease and 3% phosphatase inhibitors, in the proportion 1 mg tissue:10 μl buffer, followed by centrifugation of the homogenate at 12,000 g and 4° C., for 10 minutes. An aliquot of the supernatant was used to determine the cytokines IL-1β and IL-6 by ELISA immunoassay using DuoSet® Kit (R&D System, USA), according to the manufacturer recommendations."}, "IL-1β": {"system": "IL-1β", "experiment": "IL-1β in gastrocnemius muscle by ELISA", "format": "in vivo, Balb/c mice (Mus musculus)", "method": "as §3"}, "C-reactive protein": {"system": "C-reactive protein", "experiment": "Serum C-reactive protein (Ultra Turbiquest Plus CRP kit)", "format": "in vivo, Balb/c mice (Mus musculus)", "details": "for Serum C-reactive protein levels: mice with EAC, 9 days, Control 1.63, Normal 0.07", "method": "The determination of C-reactive protein (CRP) in serum was performed by the Ultra Turbiquest Plus® CRP kit, according to the manufacturer instructions."}, "EAC cells [2]": {"system": "EAC cells", "experiment": "Assessment of death type in harvested tumor cells (propidium iodide/acridine orange)", "procedure": "The mice were divided into 5 groups (n=6): Normal (healthy animals), Control (saline), Doxo (1 mg/kg/day), HMB (617.3 mg calcium HMB/kg/day) and Doxo+HMB (1 mg/kg/day and 617.3 mg/kg/day, respectively). The animals belonging to the Control, Doxo, HMB and Doxo+HMB groups were inoculated with EAC cells (200 μL, 5×10^6 cells) by intraperitoneal injection and treatment of animals was started after 96 hours. The dose of HMB was defined based on the recommendation for adult men of 70 kg, that is, 3 g/day (supplementary form) [21].\nHarvested tumor cells (5×10^6) were stained with 1 μL of a solution (1:1) of propidium iodide (100 μg/mL) and acridine orange (100 μg/mL). The samples were read by fluorescence microscopy on the green (excitation at 460 nm and emission at 520 nm) and red (excitation at 492 nm at emission at 620 nm) filters, and the results were expressed as percentage of viable (green), apoptotic (orange) and necrotic (red) cells [24]."}, "[3]": {"experiment": "Cachexia assessment (food intake, weight loss, muscle and fat mass) of mice with EAC", "format": "in vivo, Balb/c mice (Mus musculus)", "details": "9 days; for Average daily food intake: Control 2.17±0.69, Normal 3.30±0.60; for Brown adipose tissue mass / Dry weight soleus muscle / Mesenteric fat mass / Subcutaneous fat mass / Wet weight gastrocnemius muscle / Wet weight soleus muscle: mean ± SD, n=6", "from_the_text": "To determine average daily food intake, the weight of the feed consumed was divided by the number of animals in each cage. To evaluate the percentage of weight loss, the “initial weight” (before inoculation of the EAC), “final weight” (after 9 days of treatment) and “carcass weight” (final weight−weight of ascitic liquid) were considered according to standardized equation [27].\nThe soleus and gastrocnemius muscles were quickly removed and weighed on an analytical balance (wet mass). Soleus samples were used to determine the dry weight after 3 days at 60° C., and the gastrocnemius was kept at −80° C. for the determination of cytokines. The wet mass of the gastrocnemius and soleus muscle (mg) was normalized by the length of the tibia (mm) of the mice. Subcutaneous fat deposits, mesentery and brown adipose tissue were also removed and immediately weighed."}, "Bax/Bcl-xl": {"system": "Bax/Bcl-xl", "experiment": "Western blotting of Bax and Bcl-xl in EAC cells (Bax/Bcl-xl ratio)", "format": "in vivo, Balb/c mice (Mus musculus)", "method": "as §2, with “EAC cells were washed with PBS and lysed in RIPA buffer supplemented with 1% protease and 3% phosphatase inhibitors.” left out, “control.” for “control. Images were obtained with the ChemiDoc MP (Bio Rad) system.”"}, "EAC cells [4]": {"system": "EAC cells", "experiment": "Tumor growth inhibition and morphological evaluation of mice with EAC", "format": "in vivo, Balb/c mice (Mus musculus)", "details": "9 days treatment", "method": "Female (18 to 23 g weight, 60 days) Balb/c mice (Mus musculus) obtained from controlled reproduction carried out in the sectoral bioterium of the Federal University of Santa Catarina (Brazil), were kept in plastic cages under controlled environmental conditions (12 h light-dark cycle, 25±2° C., relative humidity 60%), receiving commercial feed and water ad libitum.\nThe moment before the tumor was inoculated, the abdominal circumference was measured. The treatments were administered intraperitoneally for 9 consecutive days. Twenty-four hours after the last treatment, all mice were weighed and their abdominal circumferences measured again. The inhibition (%) of tumour growth was calculated as follow: [(average in waist circumference of the treated group×100)/average in waist circumference of the control group]−100.\nas §1"}, "[5]": {"system": "tumors injected into the peritoneal cavity", "details": "rats; cited from earlier work"}, "COX-2": {"system": "COX-2", "experiment": "COX-2 expression in EAC cells by Western blotting", "format": "in vivo, Balb/c mice (Mus musculus)", "details": "COX-2/actin in EAC cells", "method": "as §2\nThe COX-2 expression in EAC cells was assessed by Western blotting as described in item 2.2.3. Antibodies to COX-2 were purchased from Cell Signaling (#4842)"}, "[6]": {"details": "serum HMB levels; cited from earlier work"}, "[7]": {"details": "EAC cells harvested after 9 days treatment"}},
  "data": [
    {"smiles": "COc1cccc2c1C(=O)c1c(O)c3c(c(O)c1C2=O)C[C@@](O)(C(=O)CO)C[C@@H]3O[C@H]1C[C@H](N)[C@H](O)[C@H](C)O1", "note": "[Doxo, doxorubicin]", "values": [
      {"measurement": "Mean survival time", "setting": "EAC cells [1]", "value": 26, "unit": "days"},
      {"measurement": "Surviving animals at the end of the observation period", "setting": "EAC cells [1]; n=12, 30 days", "value": 3, "unit": "animals"},
      {"measurement": "Increase of p53 expression in relation to the Control group", "setting": "p53", "value": 20, "unit": "%"},
      {"measurement": "Reduction of IL-6", "setting": "IL-6", "value": 43, "unit": "%"},
      {"measurement": "Reduction of IL-1β content in relation to controls", "setting": "IL-1β", "value": 6, "unit": "%"},
      {"measurement": "Serum C-reactive protein levels", "setting": "C-reactive protein", "value": 2.39, "unit": "mg/L"},
      {"measurement": "Increase in C-reactive protein levels compared to controls", "setting": "C-reactive protein; serum", "value": 47, "unit": "%"},
      {"measurement": "Apoptotic cells", "setting": "EAC cells [2]; [7]", "value": 4, "unit": "%"},
      {"measurement": "Necrosis (necrotic cells)", "setting": "EAC cells [2]; [7]", "value": 36, "unit": "%"},
      {"measurement": "Viable cells", "setting": "EAC cells [2]; [7]", "value": 60, "unit": "%"},
      {"measurement": "Percentage of death induced by each treatment", "setting": "EAC cells [2]; as restated in the discussion", "value": 36, "unit": "%"},
      {"measurement": "Average daily food intake", "setting": "[3]", "value": "2.22 ± 0.63", "unit": "g/day"},
      {"measurement": "Attenuation of weight loss in relation to controls", "setting": "[3]; EAC caused 11% body weight loss", "value": 54, "unit": "%"},
      {"measurement": "Brown adipose tissue mass", "setting": "[3]", "value": "3.6 ± 1.7", "unit": "mg/cm mouse length"},
      {"measurement": "Dry weight soleus muscle", "setting": "[3]", "value": "0.1 ± 0.01", "unit": "mg/mm tibia length"},
      {"measurement": "Mesenteric fat mass", "setting": "[3]", "value": "2.5 ± 0.6", "unit": "mg/cm mouse length"},
      {"measurement": "Subcutaneous fat mass", "setting": "[3]", "value": "2.2 ± 0.3", "unit": "mg/cm mouse length"},
      {"measurement": "Wet weight gastrocnemius muscle", "setting": "[3]", "value": "11.7 ± 0.2", "unit": "mg/mm tibia length"},
      {"measurement": "Wet weight soleus muscle", "setting": "[3]", "value": "0.7 ± 0.15", "unit": "mg/mm tibia length"},
      {"measurement": "Increase of Bax/Bcl-xL ratio in relation to the Control", "setting": "Bax/Bcl-xl", "value": 38, "unit": "%"},
      {"measurement": "Inhibition of tumor growth", "setting": "EAC cells [4]; from waist circumference, in relation to the Control group, n=6", "value": 42, "unit": "%"},
      {"measurement": "Reduction of body weight variation in relation to the Control group", "setting": "EAC cells [4]; mice with EAC", "value": 39, "unit": "%"},
      {"measurement": "Reduction of volume of ascitic liquid in relation to the Control group", "setting": "EAC cells [4]; mice with EAC", "value": 54, "unit": "%"}
    ]},
    {"smiles": "CC(C)(O)CC(=O)O", "note": "[HMB, β-hydroxy-β-methylbutyrate]", "values": [
      {"measurement": "Mean survival time", "setting": "EAC cells [1]", "value": 13.5, "unit": "days"},
      {"measurement": "Increase of p53 expression in relation to the Control group", "setting": "p53", "value": 10, "unit": "%"},
      {"measurement": "Improved survival", "setting": "[5]", "value": 42, "unit": "%"},
      {"measurement": "Reduction of IL-6", "setting": "IL-6", "value": 64, "unit": "%"},
      {"measurement": "Serum C-reactive protein levels", "setting": "C-reactive protein", "value": 0.31, "unit": "mg/L"},
      {"measurement": "Average daily food intake", "setting": "[3]", "value": "2.81 ± 1.05", "unit": "g/day"},
      {"measurement": "Brown adipose tissue mass", "setting": "[3]", "value": "3.2 ± 0.3", "unit": "mg/cm mouse length"},
      {"measurement": "Dry weight soleus muscle", "setting": "[3]", "value": "0.1 ± 0.04", "unit": "mg/mm tibia length"},
      {"measurement": "Mesenteric fat mass", "setting": "[3]", "value": "3.0 ± 0.8", "unit": "mg/cm mouse length"},
      {"measurement": "Subcutaneous fat mass", "setting": "[3]", "value": "1.9 ± 1.1", "unit": "mg/cm mouse length"},
      {"measurement": "Wet weight gastrocnemius muscle", "setting": "[3]", "value": "8.9 ± 0.5", "unit": "mg/mm tibia length"},
      {"measurement": "Wet weight soleus muscle", "setting": "[3]", "value": "0.8 ± 0.2", "unit": "mg/mm tibia length"},
      {"measurement": "Reduction of COX-2 expression compared to controls", "setting": "COX-2", "value": 4, "unit": "%"}
    ]},
    {"smiles": "CC(C)(O)CC(=O)O", "note": "[free acid form of HMB, β-hydroxy-β-methylbutyric acid]", "values": [
      {"measurement": "Absorption compared with CaHMB", "setting": "[6]", "value": "more rapidly absorbed than CaHMB"}
    ]}
  ]
}
